Test results: ChEMBL document CHEMBL3879900, “aSMase inhibitors” (2012)
Calls of active or inactive are those of the source. How the calls were made is not given here.

What follows are compounds tested against T1, Sphingomyelin phosphodiesterase (Homo sapiens) (UniProt P17405) (assay: Inhibition of recombinant human acid sphingomyelinase expressed in HEKfreestyle293 cells using bodipy-C12 sphingomyelin as substrate and nanomolar to low micromolar concentration of compound after 1 hr by fluorescence assay).
T1 sequence (whole entry): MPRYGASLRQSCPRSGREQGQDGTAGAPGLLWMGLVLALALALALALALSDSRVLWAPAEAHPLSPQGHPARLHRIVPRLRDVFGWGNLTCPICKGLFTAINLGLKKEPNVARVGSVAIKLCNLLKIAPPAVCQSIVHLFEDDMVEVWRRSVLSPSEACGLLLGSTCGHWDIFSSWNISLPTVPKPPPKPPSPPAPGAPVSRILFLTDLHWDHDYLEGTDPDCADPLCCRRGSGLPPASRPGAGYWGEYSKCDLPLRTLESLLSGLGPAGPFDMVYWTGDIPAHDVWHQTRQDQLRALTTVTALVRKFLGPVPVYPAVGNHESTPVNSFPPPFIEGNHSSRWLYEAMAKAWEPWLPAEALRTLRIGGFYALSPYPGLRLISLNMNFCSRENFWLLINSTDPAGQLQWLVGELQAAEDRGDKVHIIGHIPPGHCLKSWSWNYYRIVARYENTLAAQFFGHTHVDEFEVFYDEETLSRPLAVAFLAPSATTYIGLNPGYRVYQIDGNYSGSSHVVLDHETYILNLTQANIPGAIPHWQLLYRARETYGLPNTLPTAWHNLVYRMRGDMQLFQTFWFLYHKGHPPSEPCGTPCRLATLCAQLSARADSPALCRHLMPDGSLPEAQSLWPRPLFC

inhibition, active:
CCCCCCCCOc1ccc(-c2ccc(C(=O)Nc3ccccc3C(F)(F)P(=O)(O)O)cc2)cc1
CCCCCCCCOc1ccc(-c2ccc(C(=O)N(C)c3ccc(C(F)(F)P(=O)(O)O)cc3)cc2)cc1
CCCCCCCCOc1ccc(-c2ccc(C(=O)Nc3ccc(P(=O)(O)O)cc3)cc2)cc1
CCCCCCCCOc1ccc(-c2ccc(C(=O)N(C)c3cccc(C(F)(F)P(=O)(O)O)c3)cc2)cc1
CCCCCCCCOc1ccc(-c2ccc(C(=O)Nc3cccc(C(F)(F)P(=O)(O)OCC)c3)cc2)cc1
CCCCCCCCOc1ccc(-c2ccc(C(=O)N(CC)c3cccc(C(F)(F)P(=O)(OCC)OCC)c3)cc2)cc1
CCCCCCCCOc1ccc(-c2ccc(C(=O)Nc3ccccc3P(=O)(O)OCOC(=O)C(C)(C)C)cc2)cc1
CCCCCCCCOc1ccc(-c2ccc(C(=O)Nc3ccccc3C(F)(F)C(F)(F)P(=O)(OCC)OCC)cc2)cc1
CCCCCCCCOc1ccc(-c2ccc(C(=O)Nc3ccc(C(F)(F)C(F)(F)P(=O)(OCC)OCC)cc3)cc2)cc1
CCCCCCc1ccc(-c2ccc(C(=O)Nc3ccccc3CP(=O)([O-])OCC[N+](C)(C)C)cc2)cc1
CCCCCCCCOc1ccc(-c2ccc(C(=O)Nc3cccc(P(=O)(O)OCC)c3)cc2)cc1
CCCCCCCCOc1ccc(-c2ccc(C(=O)N(C)c3ccccc3C(F)(F)P(=O)(OC)OCC)cc2)cc1 (stereo not drawn)
CCCCCCCCCCOc1ccc(-c2ccc(C(=O)Nc3ccccc3CP(=O)(O)O)cc2)cc1
O=C(Nc1ccccc1CP(=O)(O)O)c1ccc(-c2ccc(O)cc2)cc1
CCCCCCCCOc1ccc(-c2ccc(C(=O)Nc3ccccc3CP(=O)(O)O)cc2)cc1
O=C(Nc1ccccc1CP(=O)(O)O)c1ccc(-c2ccccc2)cc1
CCCCCCCCOc1ccc(-c2ccc(C(=O)N(C)c3ccc(C(F)(F)P(=O)(OC)OCC)cc3)cc2)cc1 (stereo not drawn)
CCCCCCCCOc1ccc(-c2ccc(C(=O)N(C)c3ccccc3C(F)(F)P(=O)(OCC)OCC)cc2)cc1
CCCCCCCCOc1ccc(-c2ccc(C(=O)Nc3ccc(CCP(=O)(O)O)cc3)cc2)cc1
CCCCCCCCOc1ccc(-c2ccc(C(=O)Nc3ccc(CCP(=O)(OCC)OCC)cc3)cc2)cc1
CCCCCCCCOc1ccc(-c2ccc(C(=O)Nc3ccccc3C(F)(F)P(=O)(OCC)OCC)cc2)cc1
CCCCCCCOc1ccc(-c2ccc(C(=O)Nc3cccc(P(=O)(O)O)c3)cc2)cc1
CCCCCCCCOc1ccc(-c2ccc(C(=O)Nc3ccccc3CCP(=O)(O)O)cc2)cc1
CCCCCCCCOc1ccc(-c2ccc(C(=O)Nc3cccc(CCP(=O)(O)O)c3)cc2)cc1
CCCCCCCCOc1ccc(-c2ccc(C(=O)Nc3cccc(P(=O)(O)O)c3)cc2)cc1
CCCCCCCCOc1ccc(-c2ccc(C(=O)Nc3cccc(CP(=O)(O)OCC)c3)cc2)cc1
CCCCCCCCOc1ccc(-c2ccc(C(=O)Nc3cccc(CP(=O)(O)O)c3)cc2)cc1
CCCCCCCCOc1ccc(-c2ccc(C(=O)Nc3ccc(P(=O)(OCC)OCC)cc3)cc2)cc1
CCCCCCCCOc1ccc(-c2ccc(C(=O)Nc3ccccc3C(F)(F)P(=O)(O)OCC)cc2)cc1
CCCCCCCCOc1ccc(-c2ccc(C(=O)N(C)c3cccc(C(F)(F)P(=O)(OC)OCC)c3)cc2)cc1 (stereo not drawn)
CCCCCCc1ccc(-c2ccc(C(=O)Nc3ccccc3CP(=O)(O)O)cc2)cc1
CCCCCCCCOc1ccc(-c2ccc(C(=O)Nc3cccc(C(F)(F)P(=O)(OCC)OCC)c3)cc2)cc1
CCCCCCCCOc1ccc(-c2ccc(C(=O)Nc3ccccc3P(=O)(OCC)OCC)cc2)cc1
CCCCCCCCOc1ccc(-c2ccc(C(=O)N(C)c3cccc(C(F)(F)P(=O)(OCC)OCC)c3)cc2)cc1
CCCCCCCCOc1ccc(-c2ccc(C(=O)Nc3cccc(N4CC(=O)NS4(=O)=O)c3)cc2)cc1
CCCCCCCCOc1ccc(-c2ccc(C(=O)Nc3ccc(C(F)(F)C(F)(F)P(=O)(O)OCC)cc3)cc2)cc1
CCCCCCCCOc1ccc(-c2ccc(C(=O)Nc3ccc(CP(=O)(O)O)cc3)cc2)cc1
CCCCCCCCOc1ccc(-c2ccc(C(=O)Nc3ccccc3P(=O)(O)O)cc2)cc1
CCCCCCCCCCOc1ccc(-c2ccc(C(=O)Nc3ccccc3P(=O)(OCC)OCC)cc2)cc1
CCCCOc1ccc(-c2ccc(C(=O)Nc3ccccc3CP(=O)(O)O)cc2)cc1
COc1ccc(-c2ccc(C(=O)Nc3ccccc3CP(=O)(O)O)cc2)cc1
CCCCCCCCOc1ccc(-c2ccc(C(=O)Nc3ccc(C(F)(F)P(=O)(OCC)OCC)cc3)cc2)cc1
CCCCCCCCOc1ccc(-c2ccc(C(=O)Nc3ccccc3CCP(=O)(OCC)OCC)cc2)cc1
CCCCCCCCOc1ccc(-c2ccc(C(=O)N(C)c3ccc(C(F)(F)P(=O)(OCC)OCC)cc3)cc2)cc1
CCCCCCCCOc1ccc(-c2ccc(C(=O)Nc3ccc(P(=O)(O)OCC)cc3)cc2)cc1
CCCCCCCCOc1ccc(-c2ccc(C(=O)Nc3cccc(C(F)(F)P(=O)(O)O)c3)cc2)cc1
CCCCCCCCOc1ccc(-c2ccc(C(=O)N(C)c3ccccc3C(F)(F)P(=O)(O)O)cc2)cc1
CCCCCCCCOc1ccc(-c2ccc(C(=O)Nc3ccccc3C(F)(F)C(F)(F)P(=O)(O)O)cc2)cc1
O=C(Nc1ccccc1CP(=O)(O)O)C12CC3CC(C1)CC(c1ccccc1)(C3)C2
CCCCCCCCOc1ccc(-c2ccc(C(=O)Nc3ccccc3P(=O)(O)OCC)cc2)cc1
CCCCCCCCOc1ccc(-c2ccc(C(=O)Nc3cccc(C(F)(F)C(F)(F)P(=O)(OCC)OCC)c3)cc2)cc1
CCCCCCCCOc1ccc(-c2ccc(C(=O)Nc3ccc(C(F)(F)C(F)(F)P(=O)(O)O)cc3)cc2)cc1
O=C(Nc1ccccc1CP(=O)(O)O)c1ccc(-c2ccc(OCc3ccccc3)cc2)cc1
CCCCCCCCOc1ccc(-c2ccc(C(=O)N(C)c3cccc(C(F)(F)P(=O)(O)OCC)c3)cc2)cc1
CCCCCCCCOc1ccc(-c2ccc(C(=O)Nc3ccc(C(F)(F)P(=O)(O)O)cc3)cc2)cc1
CCCCCCCCOc1ccc(-c2ccc(C(=O)Nc3ccccc3P(=O)(OCOC(=O)C(C)(C)C)OCOC(=O)C(C)(C)C)cc2)cc1
CCCCCCCCOc1ccc(-c2ccc(C(=O)Nc3ccc(C(F)(F)P(=O)(O)OCC)cc3)cc2)cc1
CCCCCCCCOc1ccc(-c2ccc(C(=O)Nc3cccc(CP(=O)(OCC)OCC)c3)cc2)cc1
CCCCCCCCOc1ccc(-c2ccc(C(=O)Nc3cccc(C(F)(F)C(F)(F)P(=O)(O)O)c3)cc2)cc1
CCCCCCCCOc1ccc(-c2ccc(C(=O)Nc3ccccc3C(F)(F)P(=O)(OC)OCC)cc2)cc1 (stereo not drawn)
CCCCCCCCOc1ccc(-c2ccc(C(=O)Nc3ccc(C(F)(F)CC(F)(F)P(=O)(OCC)OCC)cc3)cc2)cc1
CCCCCCCCOc1ccc(-c2ccc(C(=O)Nc3cccc(P(=O)(OCC)OCC)c3)cc2)cc1
CCCCCCCCOc1ccc(-c2ccc(C(=O)Nc3cccc(CCP(=O)(OCC)OCC)c3)cc2)cc1
